For orientation: MIC means the lowest concentration found to suppress growth.

Holding throughout (assay type): functional
The test system of assay [1] is Staphylococcus aureus. The experiment in a line: Antibacterial activity against methicillin-resistant Staphylococcus aureus NRS384 measured by liquid dilution method.
The subject of assay [2] is Staphylococcus aureus. The experiment in a line: Antibacterial activity against Staphylococcus aureus ATCC 29213 measured by liquid dilution method.
The subject of a further assay is Escherichia coli. The experiment in a line: Antibacterial activity against Escherichia coli ATCC 25922 measured by liquid dilution method.
Assay [3] has as its system Staphylococcus aureus. Briefly: Antibacterial activity against vancomycin-intermediate Staphylococcus aureus ATCC 700699 measured by liquid dilution method.
In another assay the test system is Enterococcus faecalis. Briefly: Antibacterial activity against Enterococcus faecalis EFA17-1 measured by liquid dilution method.

Converted amounts (≈) assume the structure as drawn. Some results are limits rather than exact numbers.

Regarding `CNC1=NC(=O)C(C(C)c2c[nH]c3ccccc23)S1` (racemic), the MIC in the assay on Staphylococcus aureus [1] was over 128 µg/mL; in the assay on Staphylococcus aureus [2] it was 4 µg/mL (≈ 14.6 µM); against Escherichia coli it was over 128 µg/mL.

In the case of `CNC1=NC(=O)C(C(C)c2c[nH]c3cccc(Cl)c23)O1` (racemic), the MIC came to 2 µg/mL (≈ 6.86 µM) in the assay on Staphylococcus aureus [1], 1 µg/mL (≈ 3.43 µM) in the assay on Staphylococcus aureus [2] and 128 µg/mL (≈ 439 µM) against Escherichia coli.

For the molecule `CNC1=NC(=O)C(C(C)c2c[nH]c3ccccc23)O1` (racemic), the MIC in the assay on Staphylococcus aureus [1], against Staphylococcus aureus [2] and against Escherichia coli was 1 µg/mL (≈ 3.89 µM) each time.

In the case of `CNC1=NC(=O)C(C(C)c2c[nH]c3cccc(N4CCCC4)c23)O1` (racemic), the MIC in the assay with Staphylococcus aureus [1] was over 128 µg/mL; with Staphylococcus aureus [2], 128 µg/mL (≈ 392 µM); in the assay on Escherichia coli it was over 128 µg/mL.

As to `CNC1=NC(=O)C(C(C)c2c[nH]c3cccc(F)c23)S1` (racemic), the MIC against Staphylococcus aureus [1] is over 128 µg/mL; in the assay with Staphylococcus aureus [2] it was 8 µg/mL (≈ 27.5 µM); in the assay with Escherichia coli it was over 128 µg/mL.

With `CNC1=NC(=O)C(C(C)c2c[nH]c3c(F)cccc23)O1` (racemic), the MIC against Staphylococcus aureus [1] turned out to be 8 µg/mL (≈ 29.1 µM); with Staphylococcus aureus [2], 8 µg/mL (≈ 29.1 µM); against Escherichia coli, 16 µg/mL (≈ 58.1 µM).

With `CNC1=NC(=O)C(C(C)c2c[nH]c3cc(Br)ccc23)O1` (racemic), the figures for the MIC against Staphylococcus aureus [1], with Staphylococcus aureus [2] and against Escherichia coli were 16 µg/mL (≈ 47.6 µM), over 128 µg/mL and 4 µg/mL (≈ 11.9 µM), respectively.

On to `CNC1=NC(=O)C(C(C)c2c[nH]c3c(Br)cccc23)O1` (racemic), for which the MIC in the assay on Staphylococcus aureus [1], against Staphylococcus aureus [2] and with Escherichia coli was over 128 µg/mL in each case.

For the molecule `CNC1=NC(=O)C(C(C)c2c[nH]c3cccc(Cl)c23)S1` (racemic), the figures for the MIC against Staphylococcus aureus [1], against Staphylococcus aureus [2] and with Escherichia coli were over 128 µg/mL, 8 µg/mL (≈ 26 µM) and over 128 µg/mL, respectively.

Regarding `CNC1=NC(=O)C(C(C)c2c[nH]c3ccc(C)cc23)O1` (racemic), the MIC in the assay with Staphylococcus aureus [1], against Staphylococcus aureus [2] and against Escherichia coli was over 128 µg/mL in each case.

With `CC(c1c[nH]c2cccc(F)c12)C1OC(N)=NC1=O` (racemic), the MIC is over 128 µg/mL in the assay with Staphylococcus aureus [1], 16 µg/mL (≈ 61.2 µM) in the assay with Staphylococcus aureus [2] and over 128 µg/mL against Escherichia coli.

Regarding `CNC1=NC(=O)C(C(C)c2c[nH]c3ccc(Br)cc23)O1` (racemic), the MIC is 64 µg/mL (≈ 190 µM) against Staphylococcus aureus [1], over 128 µg/mL against Staphylococcus aureus [2] and 4 µg/mL (≈ 11.9 µM) in the assay with Escherichia coli.

For `CC(c1c[nH]c2cccc(F)c12)C1SC(N)=NC1=O` (racemic), the MIC in the assay on Staphylococcus aureus [1] is over 128 µg/mL; against Staphylococcus aureus [2] it was 16 µg/mL (≈ 57.7 µM); against Escherichia coli, over 128 µg/mL.

For `CNC1=NC(=O)C(C(C)c2c[nH]c3cc(C)ccc23)O1` (racemic), the MIC is 8 µg/mL (≈ 29.5 µM) in the assay with Staphylococcus aureus [1], over 128 µg/mL with Staphylococcus aureus [2] and 16 µg/mL (≈ 59 µM) against Escherichia coli.

Consider `CC(c1c[nH]c2ccccc12)C1OC(N)=NC1=O` (racemic), for which the MIC was over 128 µg/mL with Staphylococcus aureus [1], 8 µg/mL (≈ 32.9 µM) in the assay with Staphylococcus aureus [2] and over 128 µg/mL against Escherichia coli.

For `CNC1=NC(=O)C(C(C)c2c[nH]c3cccc(Br)c23)S1` (racemic), the figures for the MIC against Staphylococcus aureus [1], in the assay with Staphylococcus aureus [2] and with Escherichia coli were over 128 µg/mL, 16 µg/mL (≈ 45.4 µM) and over 128 µg/mL, respectively.

On to `CNC1=NC(=O)C(C(C)c2c[nH]c3ccc(N4CCCCC4)cc23)O1` (racemic), for which the MIC against Staphylococcus aureus [1], against Staphylococcus aureus [2] and against Escherichia coli was over 128 µg/mL in each case.

With `CNC1=NC(=O)C(C(C)c2c[nH]c3c(C)cccc23)O1` (racemic), the MIC in the assay on Staphylococcus aureus [1], in the assay with Staphylococcus aureus [2] and in the assay with Escherichia coli was over 128 µg/mL each time.

For the molecule `CNC1=NC(=O)C(C(C)c2c[nH]c3cccc(Br)c23)O1` (racemic), the MIC in the assay with Staphylococcus aureus [1] was over 128 µg/mL; in the assay on Staphylococcus aureus [2], 4 µg/mL (≈ 11.9 µM); in the assay with Escherichia coli it was over 128 µg/mL.

`CNC1=NC(=O)C(C(C)c2c[nH]c3cccc(O)c23)O1` (racemic): the MIC in the assay with Staphylococcus aureus [1] was 8 µg/mL (≈ 29.3 µM); against Staphylococcus aureus [2] it was over 128 µg/mL; with Escherichia coli it was over 128 µg/mL.

As for `CNC1=NC(=O)C(C(C)c2c[nH]c3cccc(OCc4ccccc4)c23)O1` (racemic), the MIC against Staphylococcus aureus [1], in the assay on Staphylococcus aureus [2] and with Escherichia coli was over 128 µg/mL each time.

On to `CNC1=NC(=O)C(C(C)c2c[nH]c3ccc(F)cc23)O1` (racemic), for which the values for the MIC with Staphylococcus aureus [1], with Staphylococcus aureus [2] and against Escherichia coli were 64 µg/mL (≈ 232 µM), 32 µg/mL (≈ 116 µM) and 128 µg/mL (≈ 465 µM), respectively.

As for `CNC1=NC(=O)C(C(C)c2c[nH]c3cccc(OC)c23)O1` (racemic), the MIC with Staphylococcus aureus [1] is over 128 µg/mL; in the assay on Staphylococcus aureus [2], 128 µg/mL (≈ 445 µM); against Escherichia coli, 16 µg/mL (≈ 55.7 µM).

Consider `CNC1=NC(=O)C(C(C)c2c[nH]c3cccc(C)c23)S1` (racemic), for which the MIC is over 128 µg/mL in the assay on Staphylococcus aureus [1], 4 µg/mL (≈ 13.9 µM) in the assay with Staphylococcus aureus [2] and over 128 µg/mL with Escherichia coli.

`CC(c1c[nH]c2ccccc12)C1SC(N)=NC1=O` (racemic): the MIC in the assay with Staphylococcus aureus [1] was over 128 µg/mL; with Staphylococcus aureus [2] it was 8 µg/mL (≈ 30.8 µM); in the assay on Escherichia coli it was over 128 µg/mL.

In the case of `CNC1=NC(=O)C(C(C)c2c[nH]c3cccc(F)c23)O1` (racemic), the values for the MIC against Staphylococcus aureus [1], against Staphylococcus aureus [2] and in the assay on Escherichia coli were 1 µg/mL (≈ 3.63 µM), 1 µg/mL (≈ 3.63 µM) and 4 µg/mL (≈ 14.5 µM), respectively.

Regarding `CNC1=NC(=O)C(C(C)c2c[nH]c3cccc(N4CCCCC4)c23)O1` (racemic), the MIC against Staphylococcus aureus [1] was over 128 µg/mL; with Staphylococcus aureus [2], 64 µg/mL (≈ 188 µM); in the assay on Escherichia coli it was over 128 µg/mL.

For `CCN(CC)c1cccc2[nH]cc(C(C)C3OC(NC)=NC3=O)c12` (racemic), the figures for the MIC with Staphylococcus aureus [1], in the assay on Staphylococcus aureus [2] and against Escherichia coli were over 128 µg/mL, 64 µg/mL (≈ 195 µM) and over 128 µg/mL, respectively.

As to `CNC1=NC(=O)C(C(C)c2c[nH]c3cc(F)ccc23)O1` (racemic), the MIC against Staphylococcus aureus [1] worked out at 8 µg/mL (≈ 29.1 µM); with Staphylococcus aureus [2] it was 16 µg/mL (≈ 58.1 µM); against Escherichia coli, 8 µg/mL (≈ 29.1 µM).

Take `CNC1=NC(=O)C(C(C)c2c[nH]c3cccc(C)c23)O1` (racemic): the MIC in the assay with Staphylococcus aureus [1] was over 128 µg/mL; in the assay on Staphylococcus aureus [2] it was 2 µg/mL (≈ 7.37 µM); against Escherichia coli, 32 µg/mL (≈ 118 µM).

`CN[C@H](CC(C)C)C(=O)N[C@H]1C(=O)N[C@@H](CC(N)=O)C(=O)N[C@H]2C(=O)N[C@H]3C(=O)N[C@H](C(=O)N[C@H](C(=O)O)c4cc(O)cc(O)c4-c4cc3ccc4O)[C@H](O)c3ccc(c(Cl)c3)Oc3cc2cc(c3O[C@@H]2O[C@H](CO)[C@@H](O)[C@H](O)[C@H]2O[C@H]2C[C@](C)(N)[C@H](O)[C@H](C)O2)Oc2ccc(cc2Cl)[C@H]1O` [VANCOMYCIN]: the results for the MIC against Staphylococcus aureus [3] and with Enterococcus faecalis were 8 µg/mL (≈ 5.52 µM) and 2 µg/mL (≈ 1.38 µM), respectively.
